Structures can show the parent of a compound that is named as a salt.
Tests used:
[1] = biological target: Cdc7/ASK (Homo sapiens, UniProt O00311); assay: Cdc7 Biochemical Assay Method 1: 384 well ELISA, whole protein substrate MCM2, antibody against Phospho MCM2 (S53); parameters: purchased; conditions: 2 μM ATP, read-out: Biochemical Method 1 (pIC50) (converted)
Method in brief: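 MCM2 protein substrate was coated on nickel-chelate plates, then Cdc7/ASK was added with 2 μM ATP in 50 mM Tris-HCl pH 8.5, 10 mM MgCl2, 1 mM DTT, 4% DMSO, 90 min at room temperature. Phospho-MCM2 (S53) was detected by ELISA with an AP secondary and PNPP absorbance. IC50 was derived from % inhibition versus no-compound and no-enzyme controls.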

[2] = test system: Cdc7 (pS53MCM2 levels in HCT116 cells); assay: Cdc7 Cell Pharmacodynamics Assay Method 1: pS53MCM2 levels in HCT116 cells, 6 hours; format: cell-based; conditions: for EC50: Homo sapiens, HCT-116, 6 h, read-out: Biomarker Method 1 (pEC50) (converted)
Excerpt: This protocol describes a method to investigate the inhibition of Cdc7 activity of compounds by measuring pS53MCM2 levels in cells after treatment.
• HCT116 cells (wild type P53 positive) • McCoys 5A media (PAA Laboratories Ltd, E15-022) • 10% FCS (Sera Laboratories International Ltd, EU000F Batch:108005) • 100× L-Glutamine (Invitrogen, 25030-024) • D-PBS without CaCl2 and MgCl2 (Invitrogen, ref 14190-094) • Trypsin/EDTA (Invitrogen 25300-054) • 2% BSA in PBS • Cell Extraction Buffer (Invitrogen FNN0011) • Protease inhibitor cocktail (Sigma P-2714) • PMSF 0.3M stock in DMSO (Sigma P7626) • Antibody-rabbit pMCM2 Ser53 (Bethyl #A300-756A) • Antibody-goat MCM2 (Bethyl #A300-122A) • Antibody-goat Anti Rabbit IgG HRP (Perbio Science UK Ltd 31462) • 1×PBS • FACE Wash buffer (0.02% Triton X100 in 1×PBS) • SuperSignal ELISA Pico Chemiluminescent Substrate (Perbio Science UK Ltd 37070) Method • 72 hours prior to the start of the experiment plate 1×10^6 HCT 116 cells in a 150 cm^2 flask in complete McCoys 5A media (+10% FCS+1× L-glutamine). • Plate 20,000 HCT116 cells per well in standard TC treated 96 well plate in 100 μL complete McCoys 5A media. • Allow cells to settle overnight in incubator set at 37° C. and 5% CO2. • Remove intermediate plate from fridge and place at 37° C. overnight to allow to equilibrate. • Cell treatment: cell assay plate 100 μL; daughter to cell transfer volume 3.33 μL; daughter volume 45 μL; mother plate to daughter volume 5 μL. • Once all cells are treated remove the cells to the incubator and incubate for 6 hours. • Dilute the capture antibody (total MCM2#A300-122A) 1 in 250 in the required volume of PBS (5 mL per assay plate) and add 50 μL to each well of a Hybond plate excluding wells 12E to 12H. In these wells add 50 μL PBS. Seal the plate and incubate at room temperature for a minimum of 2 hours. • Defrost aliquot of Invitrogen Cell Extraction Buffer (FNN0011) on ice and supplement with appropriate volume of both Sigma protease inhibitor cocktail (P-2714) and PMSF (final conc 1 mM from a 1 M stock in DMSO). • After the 6 hour cell treatment time tap out the media from the assay plates and place them in the −70° C. freezer for at least 5 minutes. • Remove plates from freezer and add 20 μL of ice cold complete lysis buffer on ice. Incubate cells for 30 minutes at 4° C. • Add 80 μL per well 2% BSA. • Transfer 80 μL from the lysis plate to the same wells in the capture/ELISA plate. Cover with plate seal and incubate plates overnight at 4° C. • Wash plates with PBS, remove any residual remaining liquid and add 50 μL per well of pMCM2 Ser53 antibody (#A300-756A) diluted 1 in 100 in 2% BSA. Cover plate and incubate at room temperature for 2 hours with gentle shaking. • Wash plates with PBS, remove any residual remaining liquid and Incubate with 50 μL goat anti rabbit antibody (1 in 800 dilution in 2% BSA) for 1 hour at room temperature. • Wash plates with PBS, remove any residual remaining liquid and add 50 μL mixed SuperSignal Pico substrate. • Incubate each plate for 5 minutes at room temperature shielding the plates from direct light (with a cover plate). Read plates with the luminescent detection. Method 2A and 2B

Cdc7/ASK, sequence (O00311 whole entry): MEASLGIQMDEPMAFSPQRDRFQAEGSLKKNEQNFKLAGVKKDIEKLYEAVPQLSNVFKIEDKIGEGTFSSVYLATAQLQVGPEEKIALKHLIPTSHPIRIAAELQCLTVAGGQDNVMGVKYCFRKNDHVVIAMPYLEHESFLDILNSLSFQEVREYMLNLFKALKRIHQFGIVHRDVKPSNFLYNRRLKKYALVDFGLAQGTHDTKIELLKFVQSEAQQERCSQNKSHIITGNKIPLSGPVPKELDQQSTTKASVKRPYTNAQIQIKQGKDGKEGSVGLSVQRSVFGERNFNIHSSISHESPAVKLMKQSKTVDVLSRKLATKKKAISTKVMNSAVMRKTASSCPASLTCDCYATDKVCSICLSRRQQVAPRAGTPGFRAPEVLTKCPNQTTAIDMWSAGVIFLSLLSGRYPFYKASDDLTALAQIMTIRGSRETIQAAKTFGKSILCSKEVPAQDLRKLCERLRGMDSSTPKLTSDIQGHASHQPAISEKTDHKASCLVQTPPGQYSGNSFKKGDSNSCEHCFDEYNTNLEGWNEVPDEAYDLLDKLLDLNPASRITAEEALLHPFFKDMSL
Cdc7/ASK, sequence (Q9UBU7 whole entry partner): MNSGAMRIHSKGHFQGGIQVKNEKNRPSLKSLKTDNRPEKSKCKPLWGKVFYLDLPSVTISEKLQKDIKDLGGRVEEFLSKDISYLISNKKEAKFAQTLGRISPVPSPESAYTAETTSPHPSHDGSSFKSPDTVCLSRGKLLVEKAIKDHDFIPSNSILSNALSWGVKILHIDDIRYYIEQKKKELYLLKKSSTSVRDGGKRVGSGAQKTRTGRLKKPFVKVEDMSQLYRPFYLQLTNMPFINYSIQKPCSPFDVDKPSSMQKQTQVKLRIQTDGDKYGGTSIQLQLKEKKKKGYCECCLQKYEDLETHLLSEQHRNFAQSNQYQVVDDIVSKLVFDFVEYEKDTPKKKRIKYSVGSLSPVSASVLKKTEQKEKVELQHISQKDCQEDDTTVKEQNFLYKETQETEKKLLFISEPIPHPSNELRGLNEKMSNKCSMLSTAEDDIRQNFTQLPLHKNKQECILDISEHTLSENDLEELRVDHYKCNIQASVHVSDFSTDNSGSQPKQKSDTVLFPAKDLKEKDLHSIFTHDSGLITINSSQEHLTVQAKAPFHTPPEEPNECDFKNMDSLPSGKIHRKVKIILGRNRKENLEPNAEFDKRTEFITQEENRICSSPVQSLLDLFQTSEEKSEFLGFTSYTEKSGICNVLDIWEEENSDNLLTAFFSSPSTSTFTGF

Row | Compound | IC50 [1] [nM] | EC50 [2] [nM] | Biomarker Method 1 (pEC50) [2]
1 | CC(C)CN1CCC(c2nc(-c3ccnc(F)c3)[nH]c(=O)c2Cl)CC1 [Compound 87] | 3.02 | 148 | 
2 | CC1CCCN(c2nc(-c3ccncc3)[nH]c(=O)c2Cl)C1 (stereo not drawn) [Compound 105] | 14.1 | 427 | 
3 | O=c1[nH]c(-c2ccncc2)nc(N2CCOCC2)c1Cl [Compound 89, 5-chloro-4-morpholino-2-(4-pyridyl)-1H-pyrimidin-6-one] | 2.29 | 74.1 | 
4 | O=C(N1CCCN(c2nc(-c3ccncc3)[nH]c(=O)c2Cl)CC1)C(F)(F)F [Compound 144] | 9.33 | 589 | 
5 | O=c1[nH]c(-c2ccncc2)nc(N2CCC(F)CC2)c1Cl [Compound 106] | 7.59 | 70.8 | 
6 | O=c1[nH]c(-c2ccncc2)nc(N2CCN(c3cccnc3)CC2)c1Cl [Compound 116] | 12.6 | 603 | 
7 | O=c1[nH]c(-c2ccncc2)nc(N2CCNCC2)c1Cl [Compound 416, 5-chloro-4-piperazin-1-yl-2-(4-pyridyl)-1H-pyrimidin-6-one hydrochloride] | 1.95 | 110 | 
8 | O=c1[nH]c(-c2ccncc2)nc(N2CCN(CC(F)(F)C(F)F)CC2)c1Cl [Compound 152] | 19.5 | 871 | 
9 | O=c1[nH]c(-c2ccncc2)nc(N2CCN[C@@H](Cc3ccccc3)C2)c1Cl [Compound 164] | 20.9 | 724 | 
10 | O=c1[nH]c(-c2ccncc2)nc(N2CCC(O)CC2)c1Cl [Compound 104] | 3.8 | 155 | 
11 | O=c1[nH]c(-c2ccncc2)nc(N2CCN(CC(F)(F)F)CC2)c1Cl [Compound 146] | 7.24 | 229 | 
12 | CC1(C)CN(c2nc(-c3ccncc3)[nH]c(=O)c2Cl)CCN1 [Compound 361] | 2.34 | 2400 | 
13 | CC(C)C1CN(c2nc(-c3ccnc(F)c3)[nH]c(=O)c2Cl)CCN1 (stereo not drawn) [Compound 310] | 3.47 | 58.9 | 
14 | CC(F)(F)C1CN(c2nc(-c3ccncc3)[nH]c(=O)c2Cl)CCN1 (stereo not drawn) [Compound 156] | 3.98 | 66.1 | 
15 | C[C@@H]1CN(c2nc(-c3ccncc3)[nH]c(=O)c2Cl)[C@H](C)CN1 [Compound 166] | 35.5 | 2820 | 
16 | O=C(OCc1ccccc1)N1CCN(c2nc(-c3ccncc3)[nH]c(=O)c2Cl)CC1 [Compound 112] | 6.17 | 759 | 
17 | CC1(C)CN(c2nc(-c3ccncc3)[nH]c(=O)c2Cl)CCO1 [Compound 121] | 5.62 | 117 | 
18 | CC(C)(C)[C@H]1CN(c2nc(-c3ccnc(F)c3)[nH]c(=O)c2Cl)CCN1.Cl [Compound 160] | 1.62 |  | 7.50
19 | O=c1[nH]c(-c2ccncc2)nc(N2CCOC(CCO)C2)c1Cl (stereo not drawn) [Compound 94] | 6.92 | 759 | 
20 | O=c1[nH]c(-c2ccncc2)nc(N2CCCC(F)(F)C2)c1Cl [Compound 132] | 1.95 | 33.9 | 
21 | O=c1[nH]c(-c2ccncc2)nc(N2CCN(CC3CCCC3)CC2)c1Cl [Compound 84] | 23.4 | 589 | 
22 | C[C@H]1CN(c2nc(-c3ccnc(F)c3)[nH]c(=O)c2Cl)CCN1 [Compound 171] | 1.17 | 72.4 | 
23 | C[C@@H]1CN(c2nc(-c3ccncc3)[nH]c(=O)c2Cl)CCN1 [Compound 140] | 6.03 | 457 | 
24 | O=c1[nH]c(-c2ccncc2)nc(N2CCNC(C(F)(F)F)C2)c1Cl (stereo not drawn) [Compound 101] | 4.37 | 44.7 | 
25 | N#CC1CCN(c2nc(-c3ccncc3)[nH]c(=O)c2Cl)CC1 [Compound 153] | 1.78 | 126 | 
26 | O=c1[nH]c(-c2ccncc2)nc(N2CCCC(C(F)(F)F)C2)c1Cl (stereo not drawn) [Compound 107] | 7.08 |  | 6.44

Row | Compound | IC50 [1] [nM] | EC50 [2] [nM] | Biomarker Method 1 (pEC50) [2]
27 | O=c1[nH]c(-c2ccncc2)nc(N2CCN(c3cccc(F)c3)CC2)c1Cl [Compound 111] | 16.2 | 759 | 
28 | CCCN1CCCN(c2nc(-c3ccncc3)[nH]c(=O)c2Cl)CC1 [Compound 143] | 21.4 | 407 | 
29 | C[C@H]1CN(c2nc(-c3ccncc3)[nH]c(=O)c2Cl)CCN1C [Compound 88] | 14.1 | 107 | 
30 | CC1CC(C)CN(c2nc(-c3ccncc3)[nH]c(=O)c2Cl)C1 (stereo not drawn) [Compound 103] | 29.5 | 1150 | 
31 | O=c1[nH]c(-c2ccncc2)nc(N2CCC(F)(F)CC2)c1Cl [Compound 127] | 45.7 | 224 | 
32 | CC1CN(c2nc(-c3ccncc3)[nH]c(=O)c2Cl)CCN1C (stereo not drawn) [Compound 28] | 11.2 | 191 | 
33 | O=c1[nH]c(-c2ccncc2)nc(N2CCOC(c3ccccc3)C2)c1Cl (stereo not drawn) [Compound 91] | 66.1 | 3160 | 
34 | CC(C)[C@H]1CN(c2nc(-c3ccncc3)[nH]c(=O)c2Cl)CCN1 [Compound 309] | 2 | 61.7 | 
35 | O=c1[nH]c(-c2ccncc2)nc(N2CCN(CC3CCCCC3)CC2)c1Cl [Compound 85] | 47.9 | 891 | 
36 | CC(=O)N1CCN(c2nc(-c3ccncc3)[nH]c(=O)c2Cl)C[C@@H]1C [Compound 78] | 2.29 | 468 | 
37 | O=c1[nH]c(-c2ccncc2)nc(N2CCCC(O)C2)c1Cl (stereo not drawn) [Compound 167] | 8.13 | 832 | 
38 | O=C(N1CCN(c2nc(-c3ccncc3)[nH]c(=O)c2Cl)CC1)C(F)(F)F [Compound 76] | 3.47 | 182 | 
39 | CC(C)(C)[C@H]1CN(c2nc(-c3ccncc3)[nH]c(=O)c2Cl)CCN1 [Compound 157] | 2.95 | 79.4 | 
40 | CC(C)CN1CCN(c2nc(-c3ccncc3)[nH]c(=O)c2Cl)CC1 [Compound 82] | 31.6 | 977 | 
41 | O=c1[nH]c(-c2ccncc2)nc(N2CCCCCC2)c1Cl [Compound 114] | 19.1 | 1550 | 
42 | C[C@H]1CN(c2nc(-c3ccncc3)[nH]c(=O)c2Cl)CCN1C(=O)C(F)(F)F [Compound 77, 5-chloro-4-[(3S)-3-methyl-4-(2,2,2-trifluoroacetyl)piperazin-1-yl]-2-(4-pyridyl)-1H-pyrimidin-6-one] | 2.95 | 93.3 | 
43 | O=c1[nH]c(-c2ccncc2)nc(N2CCCC(C(F)(F)F)C2)c1Cl (stereo not drawn) [Compound 176] | 20.9 |  | 5.56
44 | O=c1[nH]c(-c2ccncc2)nc(N2CCN[C@@H](CO)C2)c1Cl [Compound 129] | 2.09 | 871 | 
45 | O=c1[nH]c(-c2ccncc2)nc(N2CCSCC2)c1Cl [Compound 128] | 2.57 | 79.4 | 
46 | O=c1[nH]c(-c2ccncc2)nc(N2CCC(CO)CC2)c1Cl [Compound 109] | 3.63 | 151 | 
47 | O=c1[nH]c(-c2ccncc2)nc(N2CCCC(F)C2)c1Cl (stereo not drawn) [Compound 131] | 8.13 | 112 | 
48 | O=c1[nH]c(-c2ccncc2)nc(N2CCC3(CC2)COC3)c1Cl [Compound 151] | 34.7 | 501 | 
49 | O=c1[nH]c(-c2ccncc2)nc(N2CCCN(CCO)CC2)c1Cl [Compound 136] | 20 | 2090 | 
50 | O=c1[nH]c(-c2ccncc2)nc(N2CCCC(CO)C2)c1Cl (stereo not drawn) [Compound 123] | 9.33 | 224 | 
51 | CCN1CCN(c2nc(-c3ccncc3)[nH]c(=O)c2Cl)CC1 [Compound 31] | 39.8 | 398 | 

Reference: patent publication US10919896B2, “Preparation and uses of pyrimidinone derivatives” (Cancer Research Technology Limited, priority 2016, dated 2021)
